In the experiment the test system is fibroblastes d'un patient souffrant de CMTX. The experiment in a line: Abnormal cell nuclei (DAPI staining, Mitocheck classification) in fibroblasts of a CMTX patient. Format: cell-based, humain. The conditions noted are these: fibroblasts of the CMTX1 patient treated with clémastine at 10µmole; untreated patient cells about 30%, healthy individual less than 1% (Figure 1). The text has this:
Les anomalies des noyaux cellulaires sont étudiées en déposant les fiboblastes sur des lames de microscopie et en colorant les noyaux à de l'aide 4',6-diamidino-2-phénylindole, ou DAPI, les rendant ainsi fluorescents. Les anomalies nucléaires sont classées selon la classification établie par le Mitocheck, à savoir : i) les noyaux mal formés, ii) les noyaux polylobés, iii) les noyaux non séparés et iv) les autres.

Structures are written as SMILES.

For `CN1CCC[C@@H]1CCO[C@](C)(c1ccccc1)c1ccc(Cl)cc1` [clémastine], the “pourcentage des noyaux anormaux” value was around 5%.

The values above are taken from patent EP3797769A1, “COMPOSITION FOR THERAPEUTIC USE” (Fontès, M. Michel, priority 2019, dated 2021).
